Data published in patent US12493040B2, “Cancer detection method using sense of smell of nematode” (HIROTSU BIO SCIENCE INC., priority 2013, dated 2025).

Key:
ASH neurons = assay: Calcium imaging (YC3.60, microfluidic device) of ASH neurons to diacetyl; assay type: in vivo, Caenorhabditis elegans
Protocol: (§1) In order to monitor the response of the AWA, AWB, AWC and ASH neurons, the present inventor has produced strains expressing YC3.60, using odr-10, str-1, odr-3, and sra-6 promoters (11, 15, 20, and 45), respectively. As previously reported (33, 46, 47), calcium imaging was carried out using a microfluidic device. In an experiment using such a microfluidic device, a nematode was captured by a microchannel such that the nose of the nematode was exposed to running water containing a solution of diacetyl [10^−5-diluted (low concentration) and 10^−3-diluted (high concentration)], or a solution with no smell, and thus, each nematode was immobilized. The room temperature was set from 20° C. to 23° C. The fluorescence image of YC3.60 was taken using Zeiss Axioplan 2 comprising 40× objective lens and a 3CCD digital camera (C7780, Hamamatsu Photonics). All images were recovered at an exposure time of 200 ms. The time stacks of AWA, AWB, AWC, and ASH cell bodies were captured, and thereafter, using AquaCosmos software (ver. 2.6, Hamamatsu Photonics), the emission ratio between a yellow fluorescent protein (YFP) and a cyan fluorescent protein (CFP) was analyzed. This ratio was calculated as YEP intensity/CFP intensity (R), and the average ratio in 10-second window (−10 to 0 seconds) was set as RO.

nematodes (C. elegans) [1] = assay: Chemotaxis assay of wild-type, mutant, neuron-specific knockdown, neuron-ablated or interneuron-inhibited nematodes to odorants; assay type: in vivo, Caenorhabditis elegans
Protocol: Except for the eri-1 mutant that was cultured with Escherichia coli (E. coli) OP50, the nematodes (C. elegans) were cultured at 20° C. under standard conditions in a nematode growth medium (NGM) plate (36) comprising Escherichia coli NA22 as a food source. The used wild-type nematodes were of a Bristol N2 strain. As other nematode strains, GR1373: eri-1 (mg366), VC2123: sri-14 (ok2865), CX3410: odr-10 (ky225), and MT7929: unc-13 (e51) were used.
(§2) Nine adult eri-1 mutants were placed on an NGM plate containing isopropyl 1-D-1-thiogalactopyranoside (0.19 g/L), ampicillin (60 mg/L), and Escherichia coli (E. coli), and were then cultured for 4 days. Subsequently, the adult worms were used in a chemotaxis assay. The chemotaxis assay was carried out as previously reported (6, 17). In the chemotaxis assay, the present inventor has used 30 to 50 worms in each experiment in which 1 μl of 10^−3- or 10^−4-diluted odorant (low concentration), or 1 and 5 μl of undiluted odorants (high concentration) were used.
A gene to knock down the function of sri-14 in specific neurons was constructed, as previously reported (24). The target region of sri-14 (a 1.6-kb genome sequence) was amplified using the following two primers: […]
The gene expression of ASH was carried out using a sra-6 (20) promoter, and that of AWC was carried out using ceh-36 (39) and srd-17 promoters.
The present inventor has used mouse caspase-1 (mCasp1) for ablation of the AWA, AWB, AWC and ASH neurons. mCasp1 was each expressed by odr-10 (11), str-1 (15), ceh-36 (39), and sra-6 (20) promoters, respectively. Moreover, for inhibition of interneurons, unc-103 (gf) was used. The AIA-, AIB-, AIY-, or AIZ-specific expression of the unc-103 (gf) was carried out using a gcy-28.d (29), npr-9 (40), ttx-3 (41, 42), or lin-11 (43, 44) promoter, respectively.
Total RNA, which had been isolated using PureLink RNA Minikit (Ambion), was converted to cDNA by ReverTra Ace qPCR master mix using gDNA Remover (Toyobo) in accordance with the instructions made by the manufacturer. The sri-14 cDNA was amplified using the following two primers, was then digested with Nhe I and Kpn I, and was then inserted into a pPD-DEST vector (Invitrogen): […]

AWA neurons = assay: Calcium imaging (YC3.60, microfluidic device) of AWA neurons to diacetyl; assay type: in vivo, Caenorhabditis elegans
Protocol: as §1

AWB neurons = assay: Calcium imaging (YC3.60, microfluidic device) of AWB neurons to diacetyl; assay type: in vivo, Caenorhabditis elegans
Protocol: as §1

[2] = test system: RNAi-treated eri-1 (mg366) nematodes; assay: RNAi screening of olfactory receptor genes: chemotaxis assay of RNAi-treated nematodes to odorants; assay type: in vivo, Caenorhabditis elegans
Protocol: The RNAi assay was carried out by performing an RNAi method involving the feeding (feeding RNAi method) of eri-1 (mg366) (19), using an Ahringer library (37).
as §2
The z score and a control value in each single test from 2SD were calculated in all days (Table 3) or every day. The z score was used as a threshold indicating a great difference (−1.96 and 1.96, P<0.05). […] Accordingly, the present inventor has used the z score±1 (−0.96 and 0.96, P<0.33) as a weaker threshold.

AWC neurons = assay: Calcium imaging (YC3.60, microfluidic device) of AWC neurons to diacetyl; assay type: in vivo, Caenorhabditis elegans; conditions: wild-type; removal of high concentration of diacetyl (10^−3 diluted)
Protocol: as §1

nematodes (C. elegans) [3] = conditions: sri-14 mutant; 4M NaCl
Description: The present inventor has used 4 M NaCl for osmotic stimulus, and has assayed an osmotic pressure avoidance behavior, as previously reported (38).

[4] = high concentration of diacetyl (10^−3 diluted)
[5] = low (10^−5 diluted) and high (10^−3 diluted) concentration of diacetyl
[6] = high concentration of diacetyl (5 μl, undiluted)
[7] = unc-103 (gf) expression, high concentration of diacetyl (5 μl, undiluted)
[8] = low concentration of diacetyl (10^−5 diluted)

CC(=O)C(C)=O [diacetyl]
Ca2+ response of ASH neurons, odr-10 mutant (ASH neurons; [4]): normally induced
Ca2+ response of ASH neurons, sri-14 mutant (ASH neurons; [4]): significantly reduced
Ca2+ response of ASH, ASH-specific knockdown of sri-14 in wild-type nematodes (ASH neurons; [4]): reduced
calcium response of ASH neurons, AWA-ablated nematodes (ASH neurons; [4]): enhances the calcium response
defect in ASH response of sri-14 mutant with ASH-specific expression of wild-type sri-14 (ASH neurons; [4]): rescued
Ca2+ response of ASH neurons, wild-type nematodes (ASH neurons; [5]): Ca2+ response only to a high concentration of diacetyl was detected
calcium response of ASH neurons, unc-13 mutants vs wild type (ASH neurons; unc-13(e51), high concentration of diacetyl (10^−3 diluted)): significantly larger
response of AWA and ASH double-ablated nematodes (nematodes (C. elegans) [1]; high concentration of diacetyl): more severe defect
avoidance behavior of ASH-ablated nematodes (nematodes (C. elegans) [1]; [6]): avoidance behavior was inhibited
avoidance defect of sri-14 mutant with ASH-specific expression of sri-14 cDNA (nematodes (C. elegans) [1]; [6]): rescued
avoidance defect of sri-14 mutant with AWA-, AWB- or AWC-specific expression of sri-14 cDNA (nematodes (C. elegans) [1]; [6]): partially rescued or was not rescued
avoidance of AWA-ablated nematodes (nematodes (C. elegans) [1]; [6]): decrease in the avoidance
chemotaxis of AWB- or AWC-ablated nematodes (nematodes (C. elegans) [1]; [6]): did not exhibit a defect in the chemotaxis
attraction of AWA-ablated nematodes (nematodes (C. elegans) [1]; low concentration of diacetyl (10^−3 diluted)): decrease in the attraction
attraction of nematodes with interneurons inhibited (nematodes (C. elegans) [1]; low concentration of diacetyl (10^−3 diluted), except for MY): not influenced
chemotaxis of odr-10 mutant (nematodes (C. elegans) [1]; high concentration of diacetyl): normal chemotaxis
chemotaxis of odr-10 mutant (nematodes (C. elegans) [1]; low concentration of diacetyl): reduced attraction
avoidance response of sri-14 mutant (nematodes (C. elegans) [1]; sri-14 (ok2865) mutant, high concentration of diacetyl): defect in the avoidance response
reaction of sri-14 loss-of-function mutant (nematodes (C. elegans) [1]; sri-14 mutant, low concentration of diacetyl): normal reaction
response of nematodes with AIA, AIY or AIZ interneurons inhibited (nematodes (C. elegans) [1]; [7]): from an avoidance response to an attraction response
response of nematodes with AIB interneurons inhibited (nematodes (C. elegans) [1]; [7]): attenuated the avoidance response
avoidance from diacetyl, ASH-specific knockdown of sri-14 (nematodes (C. elegans) [1]; wild-type nematode, ASH-specific RNAi of sri-14, high concentration of diacetyl (5 μl, undiluted)): defect in the avoidance
avoidance from diacetyl, AWC-specific knockdown of sri-14 (nematodes (C. elegans) [1]; wild-type nematode, AWC-specific RNAi of sri-14, high concentration of diacetyl (5 μl, undiluted)): abnormality was not observed
calcium response of AWA neurons, odr-10 mutants and wild-type nematodes (AWA neurons; [4]): normally responded
calcium response of AWA neurons, odr-10 mutants (AWA neurons; [8]): did not respond
calcium response of AWA neurons, wild-type nematodes or sri-14 mutants (AWA neurons; [8]): intracellular calcium was increased
Ca2+ response of wild-type AWB neurons after removal of the smell (AWB neurons; [5]): slight Ca2+ response
Ca2+ response of AWB neurons with ectopic expression of SRI-14 (AWB neurons; removal of high concentration of diacetyl (10^−3 diluted), vs wild-type AWB): significantly enhanced
Ca2+ response of AWB neurons with ectopic expression of SRI-14 (AWB neurons; removal of low concentration of diacetyl (10^−5 diluted)): did not change the response
avoidance from diacetyl after RNAi of sri-14 ([2]; RNAi of sri-14, high concentration of diacetyl (5 μl, undiluted)): significantly strong defect in the avoidance
response (chemotaxis) to diacetyl after knockdown of odr-10 ([2]; eri-1 mutant, RNAi of odr-10, low concentration (10; diluted) of diacetyl): specific defect in the response
avoidance behavior from diacetyl after RNAi of srh-25, srh-79, srh-216 or srh-281 ([2]; high concentration of diacetyl (5 μl, undiluted), repeated assay): significant and reproducible defect
Ca2+ response of AWC neurons after removal of diacetyl (AWC neurons): a Ca2+ response occurs

[Cl-].[Na+] [NaCl]
avoidance behavior to high osmotic stimulus (nematodes (C. elegans) [3]): normal avoidance behavior
